Here are results for 24 molecules from ChEMBL document CHEMBL1770097, “Non-competitive and selective dipeptidyl peptidase IV inhibitors with phenethylphenylphthalimide skeleton derived from thalidomide-related α-glucosidase inhibitors and liver X receptor antagonists” (Bioorg Med Chem Lett, 2011).

Calls of active or inactive are those of the source. No cut-off for these calls is given here.

In the first test the target is T1, Dipeptidyl peptidase 4 (Homo sapiens, UniProt P27487). Put plainly: Inhibition of DPP4 at 10 uM assessed as […] release after 1 hr relative to control.
Target sequence in this assay (P27487 whole entry, looked up): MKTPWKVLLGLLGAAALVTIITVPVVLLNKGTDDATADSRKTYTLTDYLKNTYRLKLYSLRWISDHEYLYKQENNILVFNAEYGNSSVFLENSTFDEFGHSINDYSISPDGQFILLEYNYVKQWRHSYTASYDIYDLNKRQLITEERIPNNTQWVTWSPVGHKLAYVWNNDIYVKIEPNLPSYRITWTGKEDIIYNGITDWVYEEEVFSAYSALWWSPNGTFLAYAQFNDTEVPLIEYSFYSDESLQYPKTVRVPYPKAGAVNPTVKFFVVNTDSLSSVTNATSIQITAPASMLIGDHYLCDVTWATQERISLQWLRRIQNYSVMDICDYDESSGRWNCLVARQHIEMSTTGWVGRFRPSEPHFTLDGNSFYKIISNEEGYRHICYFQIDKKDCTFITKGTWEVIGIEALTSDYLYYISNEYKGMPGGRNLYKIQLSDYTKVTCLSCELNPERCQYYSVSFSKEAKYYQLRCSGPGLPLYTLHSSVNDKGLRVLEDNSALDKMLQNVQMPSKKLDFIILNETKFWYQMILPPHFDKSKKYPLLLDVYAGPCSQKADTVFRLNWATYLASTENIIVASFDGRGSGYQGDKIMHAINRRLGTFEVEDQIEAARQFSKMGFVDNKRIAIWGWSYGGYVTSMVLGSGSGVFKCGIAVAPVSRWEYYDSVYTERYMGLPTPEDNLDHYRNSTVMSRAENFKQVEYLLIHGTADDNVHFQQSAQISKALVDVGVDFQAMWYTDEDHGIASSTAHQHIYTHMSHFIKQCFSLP
On to `O=C1c2c(Cl)c(Cl)c(Cl)c(Cl)c2C(=O)N1c1ccc(CCc2ccc(O)c(O)c2)cc1`, for which the inhibition worked out at 11%.
Take `COc1ccc(CCc2ccc(N3C(=O)c4c(Cl)c(Cl)c(Cl)c(Cl)c4C3=O)cc2)cc1OC`: the inhibition is 3%.
Turning to `COc1ccc(CCc2cccc(N3C(=O)c4c(Cl)c(Cl)c(Cl)c(Cl)c4C3=O)c2)cc1OC`, the inhibition was 0%.
Still for that read-out and setting: the figure for `O=C1c2ccccc2C(=O)N1c1ccc(CCc2ccc(O)c(O)c2)cc1` is 7%; for `COc1ccc(CCc2cccc(N3C(=O)c4ccccc4C3=O)c2)cc1OC` it is 0%.
Turning to `O=C1c2c(Cl)c(Cl)c(Cl)c(Cl)c2C(=O)N1c1cccc(CCc2ccccc2)c1`, the inhibition is 26%.
In the case of `O=C1c2c(Cl)c(Cl)c(Cl)c(Cl)c2C(=O)N1c1ccc(CCc2ccccc2)cc1`, the inhibition was found to be 12%.
Same read-out and setting: the figure for `O=C1c2ccccc2C(=O)N1c1ccccc1CCc1ccc(O)c(O)c1` is 4%.
On the same count and under the same terms, with `O=C1c2ccccc2C(=O)N1c1cccc(CCc2ccc(O)c(O)c2)c1` the figure was 7%; with `O=C1c2c(Cl)c(Cl)c(Cl)c(Cl)c2C(=O)N1c1ccccc1CCc1ccccc1`, 7%; with `O=C1c2ccccc2C(=O)N1c1ccccc1CCc1ccccc1`, 0%.
On the same count and under the same terms, the figure for `O=C1c2ccccc2C(=O)N1c1cccc(CCc2ccccc2)c1` is 2%.
On to `O=C1c2c(Cl)c(Cl)c(Cl)c(Cl)c2C(=O)N1c1cccc(CCc2ccccc2C(F)(F)F)c1`, for which the inhibition amounted to 86%.
As to `O=C1c2c(Cl)c(Cl)c(Cl)c(Cl)c2C(=O)N1c1cccc(CCc2cccc(C(F)(F)F)c2)c1`, the inhibition was 87%.
As for `O=C1c2c(Cl)c(Cl)c(Cl)c(Cl)c2C(=O)N1c1cccc(CCc2c(F)c(F)c(F)c(F)c2F)c1`, the inhibition is 19%.
Consider `COc1ccc(CCc2ccc(N3C(=O)c4ccccc4C3=O)cc2)cc1OC`, for which the inhibition stood at 0%.
Same read-out and setting: with `O=C1c2ccccc2C(=O)N1c1ccc(CCc2ccccc2)cc1` the figure was 6%.
For `COc1ccc(CCc2ccccc2N2C(=O)c3c(Cl)c(Cl)c(Cl)c(Cl)c3C2=O)cc1OC`, the inhibition is 2%.
On the same count and under the same terms, the figure for `Cc1ccc(CCc2cccc(N3C(=O)c4c(Cl)c(Cl)c(Cl)c(Cl)c4C3=O)c2)cc1` is 25%.
Same read-out and setting: the figure for `O=C1c2c(Cl)c(Cl)c(Cl)c(Cl)c2C(=O)N1c1cccc(CCc2ccc(O)c(O)c2)c1` is 5%; for `O=C1c2c(Cl)c(Cl)c(Cl)c(Cl)c2C(=O)N1c1cccc(CCc2ccc(C(F)(F)F)cc2)c1` it is 38%; for `O=C1c2c(Cl)c(Cl)c(Cl)c(Cl)c2C(=O)N1c1ccccc1CCc1ccc(O)c(O)c1` it is 12%.
Same read-out and setting: the figure for `O=C1c2c(Cl)c(Cl)c(Cl)c(Cl)c2C(=O)N1c1cccc(CCc2ccc(F)cc2)c1` is 20%; for `COc1ccc(CCc2ccccc2N2C(=O)c3ccccc3C2=O)cc1OC` it is 0%.

Test system in a further test: not listed separately
The test is described as follows: Selectivity ratio of IC50 for DPP4 over IC50 for DPP8.
Take `O=C1c2c(Cl)c(Cl)c(Cl)c(Cl)c2C(=O)N1c1cccc(CCc2cccc(C(F)(F)F)c2)c1`: the Ratio IC50 came out at 10.

Another test deals with Dipeptidyl peptidase 8 (Homo sapiens, UniProt Q6V1X1). Put plainly: Inhibition of DPP8 assessed as […] release after 1 hr.
Chain of Dipeptidyl peptidase 8 (Q6V1X1 whole entry): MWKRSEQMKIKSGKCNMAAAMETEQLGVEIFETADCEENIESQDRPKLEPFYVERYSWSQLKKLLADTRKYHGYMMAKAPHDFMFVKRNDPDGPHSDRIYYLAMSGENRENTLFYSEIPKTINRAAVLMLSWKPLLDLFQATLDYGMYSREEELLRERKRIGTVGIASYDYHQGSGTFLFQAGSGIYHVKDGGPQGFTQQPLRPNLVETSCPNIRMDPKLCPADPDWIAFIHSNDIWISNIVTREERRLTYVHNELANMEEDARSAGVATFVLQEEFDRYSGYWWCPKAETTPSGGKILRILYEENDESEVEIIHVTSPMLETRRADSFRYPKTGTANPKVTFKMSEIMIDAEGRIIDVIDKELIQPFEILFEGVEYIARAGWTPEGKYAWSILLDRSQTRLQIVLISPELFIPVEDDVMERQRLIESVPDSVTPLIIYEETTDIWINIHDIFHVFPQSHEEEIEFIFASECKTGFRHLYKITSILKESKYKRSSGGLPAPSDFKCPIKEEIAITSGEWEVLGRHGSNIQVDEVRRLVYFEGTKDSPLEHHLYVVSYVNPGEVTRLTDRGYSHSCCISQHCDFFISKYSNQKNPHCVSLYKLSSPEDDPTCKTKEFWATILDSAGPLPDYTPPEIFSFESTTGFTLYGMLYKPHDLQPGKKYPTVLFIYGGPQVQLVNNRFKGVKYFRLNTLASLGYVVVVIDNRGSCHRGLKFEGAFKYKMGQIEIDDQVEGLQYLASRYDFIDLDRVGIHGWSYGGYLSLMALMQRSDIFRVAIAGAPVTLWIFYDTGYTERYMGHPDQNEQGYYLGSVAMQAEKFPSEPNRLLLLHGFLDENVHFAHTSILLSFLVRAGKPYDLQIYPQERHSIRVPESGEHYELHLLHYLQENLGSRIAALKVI
In the case of `O=C1c2c(Cl)c(Cl)c(Cl)c(Cl)c2C(=O)N1c1cccc(CCc2cccc(C(F)(F)F)c2)c1`, the IC50 was over 30 µM.

A further test addresses T1, Dipeptidyl peptidase 4. Put plainly: Inhibition of DPP4 assessed as […] release after 1 hr.
Regarding `O=C1c2c(Cl)c(Cl)c(Cl)c(Cl)c2C(=O)N1c1cccc(CCc2ccccc2C(F)(F)F)c1`, the IC50 stood at 4 µM and the inhibition result was “Active”.
For the molecule `O=C1c2c(Cl)c(Cl)c(Cl)c(Cl)c2C(=O)N1c1cccc(CCc2cccc(C(F)(F)F)c2)c1`, the IC50 is 3.1 µM and the inhibition result was “Active”.
